Molecular target: PSMA NAALADase activity (Homo sapiens, UniProt Q04609)
Test: NAALADase inhibition assay
Format: biochemical
Procedure: These point mutant constructs were assessed for activity in terms of inhibition of PSMA NAALADase activity. The NAALADase assay was performed in 96 well format. PSMA aptamers were serially diluted in 1× reaction buffer (40 mM Tris-HCl, pH 7.4, 0.1 mM ZnSO4, 0.1 mg/in L BSA) in a standard 96 well plate to be tested at a final concentration range from 30 pM to 1 μM. The enzyme was prepared by diluting 30 μL of 100 nM PSMA into 8 mL of reaction buffer, and kept cool on ice. The substrate was prepared by adding 19 μl of NAAG [Glutamate-3,4-^3H], 50.8 Ci/mmol, 19.7 μM (Perkin-Elmer, Wellesley, Mass., NET1082) into 2.2 mL of reaction buffer.
Following preparation of all reagents, 4 μl of each serially diluted aptamer was added to a separate 96 well plate (the reaction plate). 76 μl of diluted enzyme was added to the corresponding wells containing aptamer. 80 μl of reaction buffer was added to one column of wells to serve as a background control. The diluted substrate and reaction plate were then moved to a room at 37° C. and allowed to equilibrate for 10 minutes. After temperature equilibration, 20 μl of the prepared substrate was added to each well using a 12 channel pipet for a final volume of 100 μl/well, and a final concentration of […] enzyme and 30 nM substrate per well. A column of wells containing enzyme and substrate only was used as a high control. The aptamer/enzyme/substrate reaction was incubated at 37° C. for 15 minutes, and stopped by the addition of 100 μl of quench buffer (100 mM sodium phosphate, pH 7.4, 2 mM EDTA).
To separate the cleavage products, […] and Glutamate, from the substrate, an AG 1-X8, 200-400 mesh, formate resin (BioRad, Hercules, Calif., # 140-1454) was used. The resin was prepared by forming a 1:1 slurry in H2O, and adding 140 μl per 96 well using a Multiscreen filter plate (Multiscreen, 1.2 μm filter plates (Millipore, Billerica, Mass., # MABVN1250)). […] The plate was sealed and read using a Packard Topcount Microplate Scintillation Counter. […]

Chain of PSMA NAALADase activity (Q04609 with tags, fused parts or gaps limits assumed): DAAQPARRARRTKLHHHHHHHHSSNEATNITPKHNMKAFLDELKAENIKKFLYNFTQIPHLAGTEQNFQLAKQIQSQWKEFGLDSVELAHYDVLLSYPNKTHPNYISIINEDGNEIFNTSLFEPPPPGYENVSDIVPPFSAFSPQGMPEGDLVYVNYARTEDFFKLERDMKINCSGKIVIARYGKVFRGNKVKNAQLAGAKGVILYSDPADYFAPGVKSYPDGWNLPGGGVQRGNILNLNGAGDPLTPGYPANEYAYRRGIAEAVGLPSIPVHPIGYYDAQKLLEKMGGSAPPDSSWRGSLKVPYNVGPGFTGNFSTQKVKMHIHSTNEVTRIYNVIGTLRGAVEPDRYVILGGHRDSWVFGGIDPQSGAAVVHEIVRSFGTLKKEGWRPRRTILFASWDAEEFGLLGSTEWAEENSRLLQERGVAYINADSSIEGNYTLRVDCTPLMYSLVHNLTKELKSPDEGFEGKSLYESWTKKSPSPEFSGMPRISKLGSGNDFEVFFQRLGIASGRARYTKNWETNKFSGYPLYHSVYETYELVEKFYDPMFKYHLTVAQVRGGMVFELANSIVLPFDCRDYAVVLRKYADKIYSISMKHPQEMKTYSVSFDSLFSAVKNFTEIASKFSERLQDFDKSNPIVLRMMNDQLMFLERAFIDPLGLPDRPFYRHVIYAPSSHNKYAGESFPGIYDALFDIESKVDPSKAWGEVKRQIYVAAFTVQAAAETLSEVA

“GGAGGAfCfCGAAAAAGAfCfCfUGAfCfUfUfCfUAfUAfCfUAAGfUfCfUAfCGfUfUfCfCfUfCfCA (GGAGGACCGAAAAAGACCUGACUUCUAUACUAAGUCUACGUUCCUCCA; 2'-fluoro at 7, 8, 17, 18, 19, 22, 23, 24, 25, 26, 28, 30, 31, 35, 36, 37, 39, 41, 42, 43, 44, 45, 46, 47, other sugars and backbone not given here) [ARC591, 48-nt minimer of A9]” was tested, and the IC50 (read-out: apparent IC50, inhibition of NAALADase activity) was 6.7 nM and the “activity in the NAALADase inhibition assay” value (relative to parent) was “retained full functional activity”.
